Each structure is given as a SMILES string.

Here are results for 23 compounds from patent US20240262826A1, “WILD TYPE KIT INHIBITORS” (Blueprint Medicines Corporation, priority 2022, published 2024).

In the experiment the target is wild type c-kit (Homo sapiens (Human), UniProt P10721). The experiment in a line: PathScan phospho c-kit (Tyr719) sandwich ELISA in SCF-stimulated M-07e cells (pKIT assay). Type of experiment: cell-based. The conditions noted are these: ELISA assay (values not marked *). The text has this:
The ability of compounds of the disclosure (described herein as test compounds) to inhibit autophosphorylation of wild type c-kit was measures using either a PathScan phospho c-kit (Tyr719) sandwich ELISA (CST #7298) or a Phospho c-Kit (Tyr721) Assay Whole Cell Lysate Kit (MSD: 515DPD/catalog number K15119D-2).
For the PathScan phospho c-kit (Tyr719) sandwich ELISA: M-07e cells were resuspended at 2×10^6 cells/mL in phenol red free, serum-free, GM-CSF-free Iscove's Modified Dulbecco's Medium (IMDM) media with 1% Penicillin-Streptomycin. The cells were then dispensed into the wells of a U-bottom, 96-well plate at 50 uL per well using a multichannel pipet. The plate was allowed to incubate at 37° C. in a humidified tissue culture incubator for 4 hours.
After 4 hours of incubation, each well was dosed with 6.25 uL of test compound at a final DMSO concentration of 0.25% for 60 min at 37° C. to generate an 8-point dose concentration series of test compounds in duplicate. Cells were then incubated for 1 hour at 37° C. in a humidified tissue culture incubator. Next, human SCF at 500 ng/mL was added to the appropriate wells at 6.25 uL/well and the plate was shaken at 450 rpm at room temperature for 10 minutes. AlphaLISA 5× Lysis Buffer supplemented with 1× protease and phosphatase inhibitor was then added at 16 uL/well. The plate was sealed with an adherent cover and shaken at 4° C. at 600 rpm for 30 minutes. After this period of lysis, the plate was stored at −80° C.
When the 96-well plate containing M07e lysates was ready to be processed, the plate was brought to room temperature and 40 μl from each well was transferred to the wells of a PathScan Phospho-c-Kit (Tyr719) Sandwich ELISA plate (CST, Catalog #7298). The ELISA plate was sealed with an adherent cover and incubated for 2 hours at 37° C. Next, the wells were washed 4 times with the provided 1× Wash Buffer, and 100 uL/well of reconstituted Detection Antibody was added to each well, the plate sealed with an adherent cover, and incubated at 37° C. for 1 hour. The wash procedure was repeated and 100 uL/well of reconstituted HRP-Linked secondary antibody was added. The plate was sealed with an adherent cover and incubated at 37° C. for 1 hour. The wash procedure was repeated and 100 uL/well of TMB Substrate was added. The plate was incubated for 10 minutes at room temperature or until the positive reaction elicited a blue color in the appropriate wells. 100 uL/well of STOP solution was added and shaken gently for a few seconds a microplate reader or conventional spectrophotometer e.g., a Perkin Elmer Envision multimode plate reader, part #2105-0010.
An IC50 was calculated using a 4-parameter logistic nonlinear regression.

Sequence of wild type c-kit (P10721 26-976): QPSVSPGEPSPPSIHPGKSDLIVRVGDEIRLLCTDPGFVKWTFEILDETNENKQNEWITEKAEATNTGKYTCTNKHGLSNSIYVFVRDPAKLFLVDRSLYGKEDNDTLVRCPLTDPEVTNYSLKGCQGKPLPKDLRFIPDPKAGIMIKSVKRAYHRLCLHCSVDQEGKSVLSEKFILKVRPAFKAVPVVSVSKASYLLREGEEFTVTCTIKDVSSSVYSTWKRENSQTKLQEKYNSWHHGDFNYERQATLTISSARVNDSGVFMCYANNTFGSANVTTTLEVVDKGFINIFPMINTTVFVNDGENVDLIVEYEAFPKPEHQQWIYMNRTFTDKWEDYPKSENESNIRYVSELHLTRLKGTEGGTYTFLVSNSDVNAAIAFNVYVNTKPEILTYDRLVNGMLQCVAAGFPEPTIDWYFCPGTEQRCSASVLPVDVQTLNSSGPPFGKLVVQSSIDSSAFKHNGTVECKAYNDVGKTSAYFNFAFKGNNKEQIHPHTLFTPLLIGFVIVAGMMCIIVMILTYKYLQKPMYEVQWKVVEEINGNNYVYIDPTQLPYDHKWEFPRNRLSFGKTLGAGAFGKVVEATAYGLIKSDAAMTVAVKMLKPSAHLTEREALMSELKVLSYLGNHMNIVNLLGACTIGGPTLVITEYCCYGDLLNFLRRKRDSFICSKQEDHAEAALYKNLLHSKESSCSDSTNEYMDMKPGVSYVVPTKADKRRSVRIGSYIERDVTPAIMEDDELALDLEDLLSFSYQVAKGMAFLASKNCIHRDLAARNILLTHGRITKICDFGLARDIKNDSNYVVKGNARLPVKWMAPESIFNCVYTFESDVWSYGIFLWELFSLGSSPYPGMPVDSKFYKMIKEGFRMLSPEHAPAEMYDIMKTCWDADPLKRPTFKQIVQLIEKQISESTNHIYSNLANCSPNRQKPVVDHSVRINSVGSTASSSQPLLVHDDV

Take `Cc1ccc(-c2nnn(CCOC3CCC3)n2)cc1NC(=O)c1cnn2ccccc12` [Example 12, N-(5-(2-(2-cyclobutoxyethyl)-2H-tetrazol-5-yl)-2-methylphenyl)pyrazolo[1,5-a]pyridine-3-carboxamide]: 2.4 nM corresponded to half-maximal inhibition (IC50). This lies in the single-digit nanomolar range.
`O=C(Nc1cc(-c2nnn(CC3CC(F)(F)C3)n2)ccc1Cl)c1cnn2ccccc12` [Example 19, N-(2-chloro-5-(2-((3,3-difluorocyclobutyl)methyl)-2H-tetrazol-5-yl)phenyl)pyrazolo[1,5-a]pyridine-3-carboxamide] yielded an IC50 of 7.5 nM.
For the compound `COC(=O)N1CC(n2nnc(-c3ccc(Cl)c(NC(=O)c4cnn5ccccc45)c3)n2)C1` [Example 192], the IC50 came to 10.6 nM.
`COC[C@@H](C)Nc1ccn2ncc(C(=O)Nc3cc(-c4nnn(C5CN(C(=O)OC)C5)n4)ccc3C)c2c1` [Example 135, methyl (R)-3-(5-(3-(5-((1-methoxypropan-2-yl)amino)pyrazolo[1,5-a]pyridine-3-carboxamido)-4-methylphenyl)-2H-tetrazol-2-yl)azetidine-1-carboxylate] displayed an IC50 of 53.8 nM.
As to `Cc1ccc(-c2nnn(C3CC(F)(F)C3)n2)cc1NC(=O)c1cnn2ccc(N3CC(O)C3)cc12` [Example 60, N-(5-(2-(3,3-difluorocyclobutyl)-2H-tetrazol-5-yl)-2-methylphenyl)-5-(3-hydroxyazetidin-1-yl)pyrazolo[1,5-a]pyridine-3-carboxamide], inhibition was half-maximal at 1.8 nM (IC50).
`COC(=O)N1CC(n2nnc(-c3ccc(C)c(NC(=O)c4cnn5ccc(N[C@@H]6CCOC6)cc45)c3)n2)C1` [Example 129, methyl (R)-3-(5-(4-methyl-3-(5-((tetrahydrofuran-3-yl)amino)pyrazolo[1,5-a]pyridine-3-carboxamido)phenyl)-2H-tetrazol-2-yl)azetidine-1-carboxylate]: the IC50 was determined as 29.6 nM.
In turn, `Cc1ccc(-c2nnn(C3CN(S(C)(=O)=O)C3)n2)cc1NC(=O)c1cnn2ccc(CCC(C)(C)O)cc12` [Example 155, 5-(3-hydroxy-3-methylbutyl)-N-(2-methyl-5-(2-(1-(methylsulfonyl)azetidin-3-yl)-2H-tetrazol-5-yl)phenyl)pyrazolo[1,5-a]pyridine-3-carboxamide] returned an IC50 of 55.9 nM.
For `COC(=O)N1CC(n2nnc(-c3ccc(C)c(NC(=O)c4cnn5ccc(NCC(F)F)cc45)c3)n2)C1` [Example 131, methyl 3-(5-(3-(5-((2,2-difluoroethyl)amino)pyrazolo[1,5-a]pyridine-3-carboxamido)-4-methylphenyl)-2H-tetrazol-2-yl)azetidine-1-carboxylate] the value was 49 nM; for `Cc1cc(F)c(-c2nnn(C3CC3)n2)cc1NC(=O)c1cnn2ccc(-c3cn(C[C@@H](C)O)nc3C)cc12` [Example 255, (R)-N-(5-(2-cyclopropyl-2H-tetrazol-5-yl)-4-fluoro-2-methylphenyl)-5-(1-(2-hydroxypropyl)-3-methyl-1H-pyrazol-4-yl)pyrazolo[1,5-a]pyridine-3-carboxamide], 0.3 nM.
Consider `Cc1ccc(-c2nnn(C3CN(S(=O)(=O)CCC(F)F)C3)n2)cc1NC(=O)c1cnn2ccccc12` [Example 184, N-(5-(2-(1-((3,3-difluoropropyl)sulfonyl)azetidin-3-yl)-2H-tetrazol-5-yl)-2-methylphenyl)pyrazolo[1,5-a]pyridine-3-carboxamide], for which the IC50 was determined as 6.2 nM. Against the preceding compound, the IC50 is about 21-fold higher.
Regarding `CCCS(=O)(=O)N1CC(n2nnc(-c3ccc(C)c(NC(=O)c4cnn5ccccc45)c3)n2)C1` [Example 174], it took 28.5 nM to reach half-maximal inhibition (IC50).
`Cc1nnn(-c2ccc(C)c(NC(=O)c3cnn4ccc(Nc5cn[nH]c5)cc34)c2)n1` [Example 231, 5-((1H-pyrazol-4-yl)amino)-N-(2-methyl-5-(5-methyl-2H-tetrazol-2-yl)phenyl)pyrazolo[1,5-a]pyridine-3-carboxamide] showed an IC50 of 3.6 nM. This IC50 is about 7.9-fold lower than that of the compound before.
For `COCCNc1ccn2ncc(C(=O)Nc3cc(-c4nnn(C[C@H]5CC5(F)F)n4)ccc3C)c2c1` (single isomer, unassigned) [Example 124, (R)-N-(5-(2-((2,2-difluorocyclopropyl)methyl)-2H-tetrazol-5-yl)-2-methylphenyl)-5-((2-methoxyethyl)amino)pyrazolo[1,5-a]pyridine-3-carboxamide or (S)-N-(5-(2-((2,2-difluorocyclopropyl)methyl)-2H-tetrazol-5-yl)-2-methylphenyl)-5-((2-methoxyethyl)amino)pyrazolo[1,5-a]pyridine-3-carboxamide] the value was 1.8 nM; for `CNc1ccn2ncc(C(=O)Nc3cc(-c4nnn(C5CN(C(=O)OC)C5)n4)ccc3C)c2c1` [Example 133, methyl 3-(5-(4-methyl-3-(5-(methylamino)pyrazolo[1,5-a]pyridine-3-carboxamido)phenyl)-2H-tetrazol-2-yl)azetidine-1-carboxylate], 34.5 nM; for `COCCOC[C@@H](O)Cn1cc(-c2ccn3ncc(C(=O)Nc4cc(-c5nnn(C6CC6)n5)c(F)cc4Cl)c3c2)c(C)n1` [Example 285, (S)—N-(2-chloro-5-(2-cyclopropyl-2H-tetrazol-5-yl)-4-fluorophenyl)-5-(1-(2-hydroxy-3-(2-methoxyethoxy)propyl)-3-methyl-1H-pyrazol-4-yl)pyrazolo[1,5-a]pyridine-3-carboxamide], 1 nM.
`O=C(Nc1cc(-c2nnn(C3CC3)n2)ccc1Cl)c1cnn2ccc(-c3cnn(CC4(O)CCOCC4)c3)cc12` [Example 236, N-(2-chloro-5-(2-cyclopropyl-2H-tetrazol-5-yl)phenyl)-5-(1-((4-hydroxytetrahydro-2H-pyran-4-yl)methyl)-1H-pyrazol-4-yl)pyrazolo[1,5-a]pyridine-3-carboxamide] gave a 50% inhibitory concentration (IC50) of 0.6 nM. This IC50 is about 1.7-fold lower than that of the compound before.
In the case of `O=C(Nc1cc(-c2nnn(C3CC(F)(F)C3)n2)ccc1Cl)c1cnn2ccccc12` [Example 17, N-(2-chloro-5-(2-(3,3-difluorocyclobutyl)-2H-tetrazol-5-yl)phenyl)pyrazolo[1,5-a]pyridine-3-carboxamide], half-maximal inhibition (IC50) required 6.5 nM. Against the preceding compound, the IC50 is about 11-fold higher.
With `Cc1cc(C)c(-c2nnn(CCC(C)(O)C(F)(F)F)n2)cc1NC(=O)c1cnn2ccccc12` (centres unmarked) [Example 36, N-(2,4-dimethyl-5-(2-(4,4,4-trifluoro-3-hydroxy-3-methylbutyl)-2H-tetrazol-5-yl)phenyl)pyrazolo[1,5-a]pyridine-3-carboxamide], the IC50 was found to be 8.5 nM.
Consider `COCCNc1ccn2ncc(C(=O)Nc3cc(-c4nnn(C5CC6(CCC6)C5)n4)ccc3C)c2c1` [Example 150, 5-((2-methoxyethyl)amino)-N-(2-methyl-5-(2-(spiro[3.3]heptan-2-yl)-2H-tetrazol-5-yl)phenyl)pyrazolo[1,5-a]pyridine-3-carboxamide], for which the IC50 is 3.4 nM.
For `Cc1ccc(-c2nnn(C3CC3)n2)cc1NC(=O)c1cnn2ccc(-c3cnn([C@@H](C)[C@H](C)O)c3C)cc12` (single isomer, unassigned) [Example 270, N-(5-(2-cyclopropyl-2H-tetrazol-5-yl)-2-methylphenyl)-5-(1-((2S,3S)-3-hydroxybutan-2-yl)-5-methyl-1H-pyrazol-4-yl)pyrazolo[1,5-a]pyridine-3-carboxamide or N-(5-(2-cyclopropyl-2H-tetrazol-5-yl)-2-methylphenyl)-5-(1-((2R,3R)-3-hydroxybutan-2-yl)-5-methyl-1H-pyrazol-4-yl)pyrazolo[1,5-a]pyridine-3-carboxamide], the IC50 stood at 0.5 nM.
`Cc1cc(F)c(-c2nnn(C3CC3)n2)cc1NC(=O)c1cnn2cc(F)c(-c3cn(CC(C)(C)O)nc3C)cc12` [Example 247, N-(5-(2-cyclopropyl-2H-tetrazol-5-yl)-4-fluoro-2-methylphenyl)-6-fluoro-5-(1-(2-hydroxy-2-methylpropyl)-3-methyl-1H-pyrazol-4-yl)pyrazolo[1,5-a]pyridine-3-carboxamide] gave an IC50 of 0.5 nM.
With `Cc1cc(C2CC2)c(-c2nnn(C3CC(F)(F)C3)n2)cc1NC(=O)c1cnn2ccc(N3CCOCC3)cc12` [Example 166, N-(4-cyclopropyl-5-(2-(3,3-difluorocyclobutyl)-2H-tetrazol-5-yl)-2-methylphenyl)-5-morpholinopyrazolo[1,5-a]pyridine-3-carboxamide], the IC50 was determined as 37.7 nM. Compared with the last compound, the IC50 is about 75-fold higher.
For `Cc1ccc(-c2nnn(C3CN(S(=O)(=O)CCCCC#N)C3)n2)cc1NC(=O)c1cnn2ccccc12` [Example 186, N-(5-(2-(1-((4-cyanobutyl)sulfonyl)azetidin-3-yl)-2H-tetrazol-5-yl)-2-methylphenyl)pyrazolo[1,5-a]pyridine-3-carboxamide] the value was 103 nM.
